Our source for the IC50 values is ChEMBL document CHEMBL4828774, “Novel PRMT5 Inhibitors for Treating Cancer” (ACS Med Chem Lett, 2021).

The assay is described as follows: Cytotoxicity against human HCT116-MTAP null cells assessed as reduction in cell viability incubated for 6 days by CellTiter-Glo luminescent assay. In kind it is functional, cell-based. The settings on record: 144 h.
As for `Cc1cc2cc(C(=O)N(Cc3ccc(Br)cn3)[C@H](C)c3ncccn3)ccc2nc1N`, the IC50 was 15 nM.

For `Cc1cc2cc(C(=O)N(Cc3ccc(C(F)(F)F)cn3)[C@H](C)c3cccc(F)n3)ccc2nc1N`, the IC50 worked out at 13 nM.

With `Cc1cc2cc(C(=O)N(Cc3ccc(C(F)(F)F)cn3)[C@@H]3CCCc4nccnc43)ccc2nc1N`, the IC50 is 12 nM.

For the molecule `Cc1cc2cc(C(=O)N(Cc3ccc(C(F)(F)F)cn3)[C@@H]3CCCc4cn[nH]c43)ccc2nc1N`, the IC50 came out at 10 nM. To `Cc1cc2cc(C(=O)N(Cc3ccc(C(F)(F)F)cn3)[C@@H]3CCOc4ccc(F)nc43)ccc2nc1N` belongs 13 nM; to `C[C@H](c1ncccn1)N(Cc1ccc(C(F)(F)F)nn1)C(=O)c1cnc2nc(N)c(I)cc2c1`, 15 nM.
